Test results from patent US6506790B1, “Compounds and methods” (SmithKline Beecham Corporation, priority 1999, dated 2003).

melting point: 190 to 192 °C
Structure (SMILES): CNC1CC(C)(C)Oc2cc3c(cc21)C(c1cccc(Cl)c1)CC(C)(C)O3 (stereo not shown) [Example 4, 6-(3-chlorophenyl)-3,4,7,8-tetrahydro-N-methyl-2,2,8,8-tetramethyl-2H,6H-benzo[1,2-b:5,4-b′]dipyran-4-amine]
